Source: patent US11801242B2, “Compositions and methods for adjuvant cancer therapeutics” (DUKE UNIVERSITY, priority 2018, dated 2023)

What was measured:
Rev1^+/+ MEF cells [1] = assay: HPRT mutagenesis assay; type: cell-based, mouse; conditions: RE01 1.5 μM, cisplatin 0.5 μM
Procedure: For the hypoxanthine-guanine phosphoribosyl transferase (HPRT) mutagenesis assay, cells were first grown in HAT (complete media with 100 μM Hypoxanthine, 0.4 μM Aminopterin and 16 μM Thymidine) media (ThermoFisher) for 14 days to weed out any spontaneous HPRT mutants. After HAT selection, cells were exposed to cisplatin at the 0.5 μM concentration for 24 hours. Then, in fresh media, RE01 at a concentration of 1.5 μM was added to cells. After 24 hours of drug treatment, cells were trypsinized and washed with PBS. While 200-600 cells were plated in complete media in triplicates in 6-well plates to determine clonal efficiency, the rest of the cells were plated in complete media to allow the expression of the phenotype for 8 days. Then, 500,000 cells per treatment were plated in sextuplicate in 10 cm dishes in 6-TG media to allow the proliferation of mutated HPRT^− cells. Colonies were fixed (50% methanol and 10% glacial acetic acid), stained (0.02% Coomassie brilliant blue R-250 stain in methanol: acetic acid: water in a ratio of 46.5:7:46.5 (v/v/v)), and counted after 14-20 days. The HPRT mutation frequency was calculated as the ratio of the number of HPRT^− colonies in 6-TG media to the number of surviving colonies plated in complete media to determine clonal efficiency.

Rev1^+/+ MEF cells [2] = assay: Clonogenic survival assay; type: cell-based, mouse; conditions: RE01 1.5 μM + cisplatin 0.5 μM vs cisplatin alone
Procedure: (§1) 300 cells were plated in triplicate in 6-well plates for 24 hours. Cisplatin (cis-diammineplatinum(II) dichloride, Sigma-Aldrich) was added to relevant wells for 24 hours. All plates were incubated at 37° C. for 24 hours. Media were changed the next day and in fresh media RE01 (at 1.5 μM concentration) was added to untreated or cisplatin-treated cells for another 24 hours. Media were changed at the end of these combination treatments, and cells were allowed to recover for 7 days. To stain the resulting colonies, media were aspirated and the fixative (50% methanol and 10% glacial acetic acid) was added for 10 minutes, followed by the addition of 0.02% Coomassie brilliant blue R-250 stain (ThermoFisher) in methanol: acetic acid: water in a ratio of 46.5:7:46.5 (v/v/v). Colonies that stained blue and contained at least 40 cells were counted. Relative cell survival or colony formation was calculated by dividing colony counts from treated samples by the DMSO or untreated controls.

HT1080 cells = assay: Clonogenic survival after siRNA knock-down of REV1; type: cell-based, human; conditions: RE01 1.5 μM, cisplatin 1 μM
Procedure: as §1
(§2) REV1 was knocked down by transiently transfecting SMARTpool: ON-TARGETplus REV1 siRNA by nucleofection. The siRNA was mixed with the nucleofection buffer Mouse/Rat Hepatocyte Nucleofector™ Kit (Lonza) and electroporated using the Nucleofector™ 2b device. Full-length mouse Rev1 on the pC3 plasmid (Clontech) was nucleofected using the same buffers and device into Rev1^−/− cells to complement the REV1 function.

A375 cells = assay: Clonogenic survival after siRNA knock-down of REV1; type: cell-based, human; conditions: RE01 1.5 μM, cisplatin 1 μM
Procedure: as §1, §2

KP cells = assay: CellTiter-Glo Luminescence cell viability assay; type: cell-based, mouse
Procedure: Relative viability of cells in response to RE01 and DNA-damaging agents was assessed by the CellTiter-Glo Luminescence cell viability assay (Promega) that determines the number of viable cells based on the relative amount of ATP in the culture, which is directly proportional to the number of metabolically active cells. Briefly, 10,000 cells were plated in each well of a 96-well, white, clear flat bottom plate (Corning). Increasing doses of drugs in various combinations-RE01 alone or in combination with DNA-damaging agents-were added into the plates after 24 hours. The RE01 compound was dissolved in 0.1% DMSO and other drugs were dissolved in solvents ascribed by the manufacturer. In all cases, DMSO controls were run in parallel to the drug treatments. Cells were treated with DMSO or cisplatin (0.5 uM) for 24 hours, followed by RE01 (1.5 uM) treatment for additional 24 hours. Cells were washed and allowed to form colonies for 5-7 days and counted after staining with Coomassie brilliant blue R-250 stain. The relative viability of cells was monitored after 24 hours of drug treatment by adding CellTiter-Glo Luminescence stain to an equilibrated plate per the manufacturer's instructions. Luminescence was measured on the plate reader (Tecan Spark 10M). Relative luminescence, which is indicative of relative survival of metabolically active cells, was calculated by dividing the luminescence of treated samples with DMSO controls.
Viabilities of HT1080 (human fibrosarcoma), A375 (human melanoma), LNCap (human prostate adenocarcinoma), KP (mouse Kras^G12D;p53^−/− lung adenocarcinoma), and AG01522 (human primary fibroblasts) cells were assessed by the Promega CellTiter-Glo Luminescence cell viability assay. Relative luminescence intensities to samples treated with 0 μM RE01 (panel A) or with 0 μM DNA-damaging agents (panels B and C) are plotted. Blue lines represent single agent treatments, and orange lines represent RE01 combination treatments. […]

## CC(C)CC(=O)c1c(Nc2ccc(Cl)cc2Cl)[nH]c2c(Cl)ccc([N+](=O)[O-])c2c1=O [RE01, 8-chloro-2-((2,4-dichlorophenyl)amino)-3-(3-methylbutanoyl)-5-nitroquinolin-4(1H)-one]
Rev1^+/+ MEF cells [1]
  spontaneous or cisplatin-induced HPRT mutation rates: significantly reduced
Rev1^+/+ MEF cells [2]
  colony forming ability: significantly reduced
HT1080 cells
  RE01 mediated sensitization to cisplatin: abolished
A375 cells
  RE01 mediated sensitization to cisplatin: abolished
KP cells; RE01 1.5 μM with 4-nitroquinolone 1-oxide (4-NQO)
  sensitization to DNA-damaging agent: sensitized
KP cells; RE01 1.5 μM with benzo[a]pyrene diol epoxide (BPDE)
  sensitization to DNA-damaging agent: sensitized
KP cells; RE01 1.5 μM with methyl methanesulfonate (MMS)
  sensitization to DNA-damaging agent: sensitized
